≈ marks a conversion by molar mass, not a printed value. Where two headings read alike, the source gives them in different places. One block for each compound: values may come before it.
Columns and labels:
Assay type in all cases: physicochemical
[1] = Humidity stress tests (XRPD, HPLC purity); details: 40° C./75% RH/7 days
Description: Pattern A was heated to 277° C., monitored by DSC. […] This material was exposed to ˜90% RH at room temperature and slurried in ACN and after 4 hours the Patterns B and I were recovered, respectively.
About 15 mg of Compound A⋅2MSA (Pattern A) was loaded into a 4 mL vial and the opening was covered with a Kimwipe. This was placed in a 20 mL vial with saturated aqueous K2SO4 and sealed to provide an environment of 94-96% Relative Humidity (RH) at room temperature (RT).
About 10 mg of Compound A⋅2MSA Pattern A and Pattern B were loaded into separate 4 mL vials. These were placed in 20 mL vials with saturated aqueous NaCl and sealed to provide an environment of 75% RH at 40° C. […] The same 1 week study was done with Pattern C (+I) and Pattern I, both remained stable by XRPD.

[2] = Karl-Fischer titration for water determination
Description: Karl-Fischer titration for water determination was done using a Mettler Toledo C20S Coulometric KF Titrator equipped with a current generator cell with a diaphragm, and a doubleplatinum-pin electrode. Aquastar™ CombiCoulomat fritless reagent was used in both the anode and cathode compartments. Samples of approximately 0.03-0.10 g were dissolved in the anode compartment and titrated until the solution potential dropped below 100 mV. Hydranal 1 wt. % water standard is used for validation prior to sample analysis.

[3] = Equilibrium solubility in simulated fluids and water at 37° C.; details: for solubility at 24 h: above calibration range
Description: The solubility Compound A⋅2MSA, Patterns A, B and I, was measured in water, fasted state simulated gastric fluid (FaSSGF) and fasted state simulated intestinal fluid (FaSSIF) at 37° C. by slurrying in the respective media for 24 hours. 1.5 mL of the fluid was stirred at 37° C. About 5 mg of the specified solid was added to FaSSIF and a thin slurry was immediately formed. As a test, approximately 80 and 60 mg of Pattern A was added to 1.5 mL of water and FaSSGF, respectively without formation of a slurry. Therefore, about 10 mg of the desired Pattern was added to water and FaSSGF solutions. The samples were allowed to stir at 37° C. for 24 hrs. The stir bars were removed from the FaSSIF vials and the solids allowed to settle for 0.5 hours at 37° C. The supernatant/solutions were syringe filtered and recovered for analysis by HPLC as well as for pH measurement.

[4] = Slurries of amorphous material (dissolution at room temperature); details: room temperature (20-23° C.)
Description: About 22 mg of amorphous material was dispensed into vials and 0.5 mL (ca. 23 volumes) of the chosen solvent was added, and the mixture was stirred at room temperature (20-23° C.). A solution was formed in water and water saturated MeOAc. Additional solid was added to these solutions, but when a solution remained after roughly doubling the original solid quantity (ca. 90 mg/mL), further addition was ceased. All the other samples remained as slurries. After slurrying for 4 hours, an aliquot was taken for XRPD analysis of the slurry solids from all the samples except the water and water saturated MeOAc samples as they remained solutions. The mixtures continued to stir at room temperature overnight then the remaining slurry solids were collected (total slurry time of about 24 hours).

[5] = Stability of XRPD pattern on drying; details: solids from short term slurries; vacuum oven at 50° C., minimum of 4 hours; dimesylate
Description: Short term slurries were carried out at two temperatures in 14 solvents. About 25 mg solid was added to a 2 mL vial followed by 0.70 mL of solvent. If all solids dissolved, more solid was added until a slurry was formed within reason. Slurries were stirred at constant temperature for four days (ambient temperature, 21-23° C.; or high temperature, 50° C.). After stirring for four days, solids were allowed to settle and were then recovered for XRPD analysis. XRPD analysis was performed on the wet cake, and if a new pattern was observed, the sample was dried in a vacuum oven at 50° C. for a minimum of 4 hours, then the dried sample was analyzed by XRPD.
Stability on Drying: A sample of Pattern B was prepared on an XRPD sample holder and analysed by XRPD to create a baseline. The disk was then left in a vacuum oven at 50° C. under static vacuum for 3 days. On the third day, the sample was removed from the oven and the “dry” pattern was recorded immediately.
(§1) Compound A⋅2MSA (Pattern A) was slurried in EtOH overnight at room temperature (ca. 16 hours). […] The bulk was dried in a vacuum oven at 50° C. under dynamic vacuum for 4.5 hours. The dried solids were removed from the oven and a “dry” XRPD analysis was collected.

[6] = Storage at ambient conditions (XRPD); details: bulk, 6 days at ambient conditions; dimesylate
Description: Characterization after storage under ambient conditions: Pattern B was left at ambient conditions (21-22° C., 10-40% RH) for a week then characterized by)(RFD, TGA/DSC, and water content measured by Karl-Fischer titration. […] The water content was confirmed by KF titration which yielded a value of 4.20 wt. %.
Compound A⋅2MSA (Pattern A, 0.2622 g) was added to a 20 mL vial with a stir bar. Fifteen volumes (3.93 mL) of EtOH was added and the slurry was stirred overnight (˜20 hours). The slurry was sampled to confirm the correct pattern was generated, then the solids were collected by filtration. The resultant yellow solid was dried in a vacuum oven at 50° C. under dynamic vacuum for 2 hours, then under static vacuum overnight (˜16 hours) to yield 0.2015 g (77% yield). The in-situ sample drawn was dried for 3 hours then the solid was used for characterization by solution ^1H-NMR spectroscopy and simultaneous TGA/DSC. The bulk was dried overnight and used for stand-alone DSC, and thermal treatment.
as §1
Compound A⋅2MSA (Pattern A, 0.2659 g) was added to a 20 mL vial with a stir bar. Twenty-five volumes (6.65 mL) of ACN was added and the slurry was stirred overnight (˜20 hours). The slurry was sampled to confirm the correct pattern was generated, then the solids were collected by filtration. The resultant yellow solid was dried in a vacuum oven at 50° C. under dynamic vacuum for 2 hours, then under static vacuum overnight (˜16 hours) to yield 0.2255 g (85% yield). The sample drawn was dried for 3 hours then the solid was used for characterization by solution ^1H-NMR spectroscopy and simultaneous TGA/DSC. The bulk was dried overnight and used for stand-alone DSC.

[7] = Dynamic Vapor Sorption (DVS)
Description: Dynamic Vapor Sorption (DVS) was done using a DVS Intrinsic 1. The sample is loaded into a sample pan and suspended from a microbalance. A typical sample mass for DVS measurement is 25 mg. Nitrogen gas bubbled through distilled water provides the desired relative humidity.
A typical measurement comprises the steps: • 1—Equilibrate at 50% RH • 2-50% to 2%. (50%, 40%, 30%, 20%, 10% and 2%) • a. Hold minimum of 5 mins and maximum of 240 minutes at each humidity. The pass criteria is less than 0.002% change • 3-2% to 95% (2%, 10%, 20%, 30%, 40%, 50%, 60%, 70%, 80%, 90%, 95%) • a. Hold minimum of 5 mins and maximum of 240 minutes at each humidity. The pass criteria is less than 0.002% change • 4-95% to 2% (95%, 80%, 70%, 60%, 50%, 40%, 30%, 20%, 10%, 2%) • a. Hold minimum of 5 mins and maximum of 240 minutes at each humidity. The pass criteria is less than 0.002% change • 5-2% to 50% (2%, 10%, 20%, 30%, 40%, 50%) • a. Hold minimum of 5 mins and maximum of 240 minutes at each humidity. The pass criteria is less than 0.002% change Dynamic Vapor Sorption Isotherm Plots of Solid Forms of Compound A⋅2MSA

- Output XRPD [1]: C + I
Structure (SMILES): CS(=O)(=O)O.CS(=O)(=O)O.N#Cc1cccc(-c2ccc3ncc(-c4cc(F)cc(F)c4)c(N4CCC(N)CC4)c3c2)c1O [C + I, 3-(4-(4-aminopiperidin-1-yl)-3-(3,5-difluorophenyl)quinolin-6-yl)-2-hydroxybenzonitrile dimesylate]

- Water Content [2]: 1.5% w/w
- pH (24 hr) ([3]; FaSSGF (pH 1.70)): 1.82
- comments ([3]; FaSSGF (pH 1.70), 24 hrs): dissolved
- solubility at 24 h ([3]; FaSSGF, 37 °C, pH 1.7, fassgf or other biorelevant, thermodynamic from solid, FaSSGF (pH 1.70), 24 hrs, mg of Compound A (free base), read-out: Concentration): > 10300 µg/mL
- pH (24 hr) ([3]; FaSSIF (pH 6.48)): 6.11
- comments ([3]; FaSSIF (pH 6.48), 24 hrs): disproportionated
- solubility thermodynamic at 24 h ([3]; FaSSIF, 37 °C, pH 6.48, fassif, thermodynamic from solid, FaSSIF (pH 6.48), 24 hrs, mg of Compound A (free base), read-out: Concentration): 9 µg/mL (≈ 0.0197 mM)
- pH (24 hr) ([3]; water): 2.71
- solubility at 24 h ([3]; water, 37 °C, water, thermodynamic from solid, water, 24 hrs, mg of Compound A (free base), read-out: Concentration): > 9770 µg/mL
- comments ([3]; water, 24 hrs): dissolved
Structure (SMILES): N#Cc1cccc(-c2ccc3ncc(-c4cc(F)cc(F)c4)c(N4CCC(N)CC4)c3c2)c1O [Compound A, 3-(4-(4-aminopiperidin-1-yl)-3-(3,5-difluorophenyl)quinolin-6-yl)-2-hydroxybenzonitrile]

- concentration at which a solution remained ([4]; water saturated MeOAc): > 90000 µg/mL
- concentration at which a solution remained ([4]; water): > 90000 µg/mL
Structure (SMILES): CS(=O)(=O)O.CS(=O)(=O)O.N#Cc1cccc(-c2ccc3ncc(-c4cc(F)cc(F)c4)c(N4CCC(N)CC4)c3c2)c1O [Amorphous Compound A⋅2MSA, 3-(4-(4-aminopiperidin-1-yl)-3-(3,5-difluorophenyl)quinolin-6-yl)-2-hydroxybenzonitrile dimesylate]

- Water Content ([2]; dimesylate): 0.29% w/w
- XRPD pattern upon drying [5]: stable upon drying
- XRPD pattern after storage at ambient conditions [6]: a pattern with additional peaks
- XRPD form after the DVS experiment ([7]; 2-95% RH, dimesylate): converted to Pattern B
- reversible water uptake (DVS) ([7]; between 2% and 95% Relative Humidity (RH), dimesylate): 9.1 % w/w
- water uptake (DVS) ([7]; between 15 and 75% RH): 2.5 % w/w
- total mass difference on the desorption segment (DVS) ([7]; over the 2-95% RH range): 4.6%
- total mass difference on the sorption segment (DVS) ([7]; over the 2-95% RH range): 9.1%
- mass change (DVS) ([7]; range of 15-75% RH): 2.5 wt. %
Structure (SMILES): CS(=O)(=O)O.CS(=O)(=O)O.N#Cc1cccc(-c2ccc3ncc(-c4cc(F)cc(F)c4)c(N4CCC(N)CC4)c3c2)c1O [Pattern I, 3-(4-(4-aminopiperidin-1-yl)-3-(3,5-difluorophenyl)quinolin-6-yl)-2-hydroxybenzonitrile dimesylate]
